Assay results from BindingDB's records for patent WO2025051920 (Sanofi-Aventis Deutschland, 2025).
Bridge positions count the residues as written; N and C are the ends. Square brackets hold non-standard residues; d marks the D form. Peptide text beside a SMILES is read from it. ξ: configuration not given here. Trp(1-Me) = Cn1cc(C[C@H](N)C(=O)O)c2ccccc21; 2Nal = N[C@@H](Cc1ccc2ccccc2c1)C(=O)O; ξThr(3R) = C[C@@H](O)C(N)C(=O)O; ξH = NC(Cc1c[nH]cn1)C(=O)O; Thp = NC1(C(=O)O)CCOCC1; ξD = NC(CC(=O)O)C(=O)O; ξOrn = NCCCC(N)C(=O)O; Aib = CC(C)(N)C(=O)O; ξK = NCCCCC(N)C(=O)O

Biological target: Interleukin-23 subunit alpha/receptor (UniProt Q5VWK5)
Experiment: ELISA assay for specific human IL-23R inhibitors
Description: A 384-well plate was coated with 50 µl/well of human IL-23 at a final concentration of […] and incubated overnight at 4°C. The wells were washed 3 times with […] wash buffer and blocked with […] blocking buffer for 60 minutes at room temperature and washed again. 20 µl of serially diluted test peptides was added to each well and subsequently 20 µl of recombinant human IL-23R-Fc chimera at final concentration of […]. The plate was incubated for 60 minutes at room temperature. After the wells were washed, bound IL-23R-Fc was detected with goat anti-hu- IgG 1 -HRP antibody. Signals were visualized with QuantaBlu Fluorogenic Peroxidase Substrate.

Sequence of Interleukin-23 subunit alpha/receptor (Q9NPF7 whole entry): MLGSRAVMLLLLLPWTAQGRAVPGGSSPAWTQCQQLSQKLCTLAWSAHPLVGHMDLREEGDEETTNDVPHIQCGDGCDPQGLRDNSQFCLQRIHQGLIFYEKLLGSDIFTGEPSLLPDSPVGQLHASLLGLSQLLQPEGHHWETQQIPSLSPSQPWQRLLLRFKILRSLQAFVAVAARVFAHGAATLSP
Sequence of Interleukin-23 subunit alpha/receptor (Q5VWK5 whole entry): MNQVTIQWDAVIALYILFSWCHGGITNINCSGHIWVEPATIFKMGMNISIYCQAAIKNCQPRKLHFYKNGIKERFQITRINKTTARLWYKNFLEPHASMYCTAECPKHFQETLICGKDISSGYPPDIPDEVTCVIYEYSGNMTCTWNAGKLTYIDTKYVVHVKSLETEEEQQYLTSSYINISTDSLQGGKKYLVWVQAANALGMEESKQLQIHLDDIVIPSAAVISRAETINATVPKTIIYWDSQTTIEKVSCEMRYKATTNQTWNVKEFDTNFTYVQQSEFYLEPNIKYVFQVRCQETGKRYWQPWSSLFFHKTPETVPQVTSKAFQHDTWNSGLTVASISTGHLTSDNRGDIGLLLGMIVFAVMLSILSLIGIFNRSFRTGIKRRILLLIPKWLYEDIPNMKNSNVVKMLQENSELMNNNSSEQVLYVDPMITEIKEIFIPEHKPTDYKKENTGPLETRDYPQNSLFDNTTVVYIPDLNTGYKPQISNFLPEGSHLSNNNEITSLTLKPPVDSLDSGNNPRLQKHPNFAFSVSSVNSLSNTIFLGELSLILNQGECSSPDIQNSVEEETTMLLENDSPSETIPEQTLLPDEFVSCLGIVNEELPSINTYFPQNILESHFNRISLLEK

Compound | IC50
COc1ccc(C[C@@H]2NC(=O)[C@H](CCCNC(=N)N)NC(=O)[C@H](CCC(N)=O)NC(=O)[C@H](Cc3c[nH]c4ccccc34)NC(=O)[C@H]([C@@H](C)O)NC(=O)[C@H](CC(N)=O)NC(=O)[C@H](NC(C)=O)CCCCNC(=O)C[C@@H](C(=O)N[C@@H](CC(N)=O)C(=O)N[C@@H](CC(N)=O)C(=O)O)NC(=O)[C@H](CCCNC(N)=O)NC(=O)[C@H](Cc3ccc4ccccc4c3)NC2=O)cc1 [WO2025051920, Example 29] | 5.63 nM
COc1ccc(C[C@@H]2NC(=O)[C@H](CCCNC(=N)N)NC(=O)[C@H](CCC(N)=O)NC(=O)[C@H](Cc3c[nH]c4ccccc34)NC(=O)[C@H]([C@@H](C)O)NC(=O)[C@H](CC(N)=O)NC(=O)[C@H](NC(C)=O)CCCCNC(=O)C[C@@H](C(=O)N[C@@H](CC(N)=O)C(=O)N[C@@H](CC(N)=O)C(=O)O)NC(=O)[C@H](CCC(N)=O)NC(=O)[C@H](Cc3ccc4ccccc4c3)NC2=O)cc1 [WO2025051920, Example 30] | 9.64 nM
COc1ccc(C[C@@H]2NC(=O)[C@H](C(C)C)NC(=O)[C@H](CCC(N)=O)NC(=O)[C@H](Cc3c[nH]c4ccccc34)NC(=O)[C@H]([C@@H](C)O)NC(=O)[C@H](CC(N)=O)NC(=O)[C@H](NC(C)=O)CCCCNC(=O)C[C@@H](C(=O)N[C@@H](CC(N)=O)C(=O)N[C@@H](CC(N)=O)C(=O)O)NC(=O)C(C)(C)NC(=O)[C@H](Cc3ccc4ccccc4c3)NC2=O)cc1 [WO2025051920, Example 31] | 8.27 nM
COc1ccc(C[C@@H]2NC(=O)C(C)(C)NC(=O)[C@H](CCC(N)=O)NC(=O)[C@H](Cc3c[nH]c4ccccc34)NC(=O)[C@H]([C@@H](C)O)NC(=O)[C@H](CC(N)=O)NC(=O)[C@H](NC(C)=O)CCCCNC(=O)C[C@@H](C(=O)N[C@@H](CC(N)=O)C(=O)N[C@@H](CC(N)=O)C(=O)O)NC(=O)C(C)(C)NC(=O)[C@H](Cc3ccc4ccccc4c3)NC2=O)cc1 [WO2025051920, Example 32] | 2.68 nM
CC(=O)N[C@H]1CC(=O)NCCCC(C(=O)N[C@@H](CC(N)=O)C(=O)N[C@@H](CC(N)=O)C(=O)O)NC(=O)C(C)(C)NC(=O)[C@H](Cc2ccc3ccccc3c2)NC(=O)[C@H](Cc2ccc(O)cc2)NC(=O)[C@H](CCCNC(=N)N)NC(=O)[C@H](CCC(N)=O)NC(=O)[C@H](Cc2cn(C)c3ccccc23)NC(=O)[C@H]([C@@H](C)O)NC(=O)[C@H](CC(N)=O)NC1=O (stereo not given in full) [WO2025051920, Example 33] (Ac-DNT[Trp(1-Me)]QRY[2Nal][Aib][ξOrn]NN-OH; lactam 1-10) | 3.36 nM
COc1ccc(C[C@@H]2NC(=O)[C@H](CCCNC(=N)N)NC(=O)[C@H](CCC(N)=O)NC(=O)[C@H](Cc3cn(C)c4ccccc34)NC(=O)[C@H]([C@@H](C)O)NC(=O)[C@H](CC(N)=O)NC(=O)[C@@H](NC(C)=O)CC(=O)NCCCC(C(=O)N[C@@H](CC(N)=O)C(=O)N[C@@H](CC(N)=O)C(=O)O)NC(=O)C(C)(C)NC(=O)[C@H](Cc3ccc4ccccc4c3)NC2=O)cc1 (stereo not given in full) [WO2025051920, Example 34] (Ac-DNT[Trp(1-Me)]QRY(Me)[2Nal][Aib][ξOrn]NN-OH; lactam 1-10) | 2.16 nM
COc1ccc(C[C@@H]2NC(=O)[C@H](CCCNC(=N)N)NC(=O)[C@H](CCC(N)=O)NC(=O)[C@H](Cc3cn(C)c4ccccc34)NC(=O)[C@H]([C@@H](C)O)NC(=O)[C@H](CC(N)=O)NC(=O)[C@@H](NC(C)=O)CCC(=O)NCCCC(C(=O)N[C@@H](CC(N)=O)C(=O)N[C@@H](CC(N)=O)C(=O)O)NC(=O)C(C)(C)NC(=O)[C@H](Cc3ccc4ccccc4c3)NC2=O)cc1 (stereo partly drawn) [WO2025051920, Example 35] (Ac-ENT[Trp(1-Me)]QRY(Me)[2Nal][Aib][ξOrn]NN-OH; lactam 1-10) | 4.55 nM
COc1ccc(C[C@@H]2NC(=O)[C@H](CCCNC(=N)N)NC(=O)[C@H](CCC(N)=O)NC(=O)[C@H](Cc3cn(C)c4ccccc34)NC(=O)[C@H]([C@@H](C)O)NC(=O)[C@H](CC(N)=O)NC(=O)[C@@H](NC(C)=O)CC(=O)NCCCC(C(=O)N[C@@H](CC(N)=O)C(=O)N[C@@H](CC(N)=O)C(=O)O)NC(=O)C(C)(C)NC(=O)[C@H](Cc3c[nH]c4ccccc34)NC2=O)cc1 (stereo not given in full) [WO2025051920, Example 36] (Ac-DNT[Trp(1-Me)]QRY(Me)W[Aib][ξOrn]NN-OH; lactam 1-10) | 19.5 nM
COc1ccc(C[C@@H]2NC(=O)[C@H](CCCNC(=N)N)NC(=O)[C@H](CCC(N)=O)NC(=O)[C@H](Cc3cn(C)c4ccccc34)NC(=O)[C@H]([C@@H](C)O)NC(=O)[C@H](CC(N)=O)NC(=O)[C@@H](NC(C)=O)CC(=O)NCCCC(C(=O)N[C@@H](CC(N)=O)C(=O)N[C@@H](CC(N)=O)C(=O)O)NC(=O)[C@H](CC(C)C)NC(=O)[C@H](Cc3ccc4ccccc4c3)NC2=O)cc1 (stereo not given in full) [WO2025051920, Example 37] (Ac-DNT[Trp(1-Me)]QRY(Me)[2Nal]L[ξOrn]NN-OH; lactam 1-10) | 3.57 nM
COc1ccc(C[C@@H]2NC(=O)[C@H](CCNC(=N)N)NC(=O)[C@H](CCC(N)=O)NC(=O)[C@H](Cc3c[nH]c4ccccc34)NC(=O)[C@H]([C@@H](C)O)NC(=O)[C@H](CC(N)=O)NC(=O)[C@H](NC(C)=O)CCCCNC(=O)C[C@@H](C(=O)N[C@@H](CC(N)=O)C(=O)N[C@@H](CC(N)=O)C(=O)O)NC(=O)C(C)(C)NC(=O)[C@H](Cc3ccc4ccccc4c3)NC2=O)cc1 [WO2025051920, Example 39] | 1.46 nM
COc1ccc(C[C@@H]2NC(=O)[C@H](CCNC(=N)N)NC(=O)[C@H](CCC(N)=O)NC(=O)[C@H](Cc3c[nH]c4ccccc34)NC(=O)C([C@@H](C)O)NC(=O)[C@H](CC(N)=O)NC(=O)C(N)CCCCCNC(=O)CC[C@H](C(=O)N[C@@H](CC(N)=O)C(=O)N[C@@H](CC(N)=O)C(=O)O)NC(=O)C(C)(C)NC(=O)[C@H](Cc3ccc4ccccc4c3)NC2=O)cc1 (stereo not given in full) [WO2025051920, Example 40] | 3.11 nM
COc1ccc(C[C@@H]2NC(=O)[C@H](CCCNC(=N)N)NC(=O)[C@H](CCC(N)=O)NC(=O)[C@H](Cc3c[nH]c4ccccc34)NC(=O)C([C@@H](C)O)NC(=O)[C@H](CC(N)=O)NC(=O)C(NC(C)=O)CCCCNC(=O)CC(C(=O)N[C@@H](CC(N)=O)C(=O)N[C@@H](CC(N)=O)C(=O)O)NC(=O)C3(CCOCC3)NC(=O)[C@H](Cc3ccc4ccccc4c3)NC2=O)cc1 (stereo partly drawn) [WO2025051920, Example 41] (Ac-[ξK]N[ξThr(3R)]WQRY(Me)[2Nal][Thp][ξD]NN-OH; lactam 1-10) | 1.47 nM
COc1ccc(C[C@@H]2NC(=O)[C@H](CCCNC(=N)N)NC(=O)[C@H](CCC(N)=O)NC(=O)[C@H](Cc3c[nH]c4ccccc34)NC(=O)C(Cc3c[nH]cn3)NC(=O)[C@H](CC(N)=O)NC(=O)C(NC(C)=O)CCCCNC(=O)CC(C(=O)N[C@@H](CC(N)=O)C(=O)N[C@@H](CC(N)=O)C(=O)O)NC(=O)C3(CCOCC3)NC(=O)[C@H](Cc3ccc4ccccc4c3)NC2=O)cc1 (stereo not given in full) [WO2025051920, Example 42] (Ac-[ξK]N[ξH]WQRY(Me)[2Nal][Thp][ξD]NN-OH; lactam 1-10) | 18.1 nM
COc1ccc(C[C@@H]2NC(=O)[C@H](C)NC(=O)[C@H](CCC(N)=O)NC(=O)[C@H](Cc3c[nH]c4ccccc34)NC(=O)C([C@@H](C)O)NC(=O)[C@H](CC(N)=O)NC(=O)C(N)CCCCCNC(=O)C[C@H](C(=O)N[C@@H](CC(N)=O)C(=O)N[C@@H](CC(N)=O)C(=O)O)NC(=O)C(C)(C)NC(=O)[C@H](Cc3ccc4ccccc4c3)NC2=O)cc1 (stereo not given in full) [WO2025051920, Example 43] | 1.44 nM
COc1ccc(C[C@@H]2NC(=O)[C@H](C)NC(=O)[C@H](CCC(N)=O)NC(=O)[C@H](Cc3c[nH]c4ccccc34)NC(=O)[C@H]([C@@H](C)O)NC(=O)[C@H](CCCNC(=N)N)NC(=O)[C@H](NC(C)=O)CCCCNC(=O)C[C@@H](C(=O)N[C@@H](CC(N)=O)C(=O)N[C@@H](CC(N)=O)C(=O)O)NC(=O)C(C)(C)NC(=O)[C@H](Cc3ccc4ccccc4c3)NC2=O)cc1 [WO2025051920, Example 45] | 0.96 nM
COc1ccc(C[C@@H]2NC(=O)[C@H](C)NC(=O)[C@H](CCC(N)=O)NC(=O)[C@H](Cc3c[nH]c4ccccc34)NC(=O)[C@H](CCCNC(=N)N)NC(=O)[C@H](CC(N)=O)NC(=O)[C@H](NC(C)=O)CCCCNC(=O)C[C@@H](C(=O)N[C@@H](CC(N)=O)C(=O)N[C@@H](CC(N)=O)C(=O)O)NC(=O)C(C)(C)NC(=O)[C@H](Cc3ccc4ccccc4c3)NC2=O)cc1 [WO2025051920, Example 46] | 1.38 nM
COc1ccc(C[C@@H]2NC(=O)[C@H](C)NC(=O)[C@H](CCC(N)=O)NC(=O)[C@H](Cc3c[nH]c4ccccc34)NC(=O)[C@H]([C@@H](C)O)NC(=O)[C@H](CC(N)=O)NC(=O)[C@H](NC(C)=O)CCCCNC(=O)C[C@@H](C(=O)N[C@@H](CC(N)=O)C(=O)N[C@@H](CC(N)=O)C(=O)O)NC(=O)[C@H](CCCNC(=N)N)NC(=O)[C@H](Cc3ccc4ccccc4c3)NC2=O)cc1 [WO2025051920, Example 47] | 1.34 nM
COc1ccc(C[C@@H]2NC(=O)[C@H](C)NC(=O)[C@H](CCC(N)=O)NC(=O)[C@H](Cc3c[nH]c4ccccc34)NC(=O)[C@H]([C@@H](C)O)NC(=O)[C@H](CC(N)=O)NC(=O)[C@H](NC(C)=O)CCCCNC(=O)C[C@@H](C(=O)N[C@@H](CC(N)=O)C(=O)N[C@@H](C)C(=O)O)NC(=O)C(C)(C)NC(=O)[C@H](Cc3ccc4ccccc4c3)NC2=O)cc1 [WO2025051920, Example 48] | 2.06 nM
COc1ccc(C[C@@H]2NC(=O)[C@H](C)NC(=O)[C@H](CCC(N)=O)NC(=O)[C@H](Cc3c[nH]c4ccccc34)NC(=O)[C@H]([C@@H](C)O)NC(=O)[C@H](CC(N)=O)NC(=O)[C@H](NC(C)=O)CCCCNC(=O)C[C@@H](C(=O)N[C@@H](C)C(=O)N[C@@H](CC(N)=O)C(=O)O)NC(=O)C(C)(C)NC(=O)[C@H](Cc3ccc4ccccc4c3)NC2=O)cc1 [WO2025051920, Example 49] | 3.13 nM
COc1ccc(C[C@@H]2NC(=O)[C@H](C)NC(=O)[C@H](CCC(N)=O)NC(=O)[C@H](Cc3c[nH]c4ccccc34)NC(=O)[C@H]([C@@H](C)O)NC(=O)[C@H](CC(N)=O)NC(=O)[C@H](NC(C)=O)CCCCNC(=O)C[C@@H](C(=O)N[C@@H](C)C(=O)N[C@@H](C)C(=O)O)NC(=O)C(C)(C)NC(=O)[C@H](Cc3ccc4ccccc4c3)NC2=O)cc1 [WO2025051920, Example 50] | 8.29 nM
